Experimental data as given in patent US20180116993A1, “MODULATORS OF FARNESOID X RECEPTOR AND METHODS FOR THE USE THEREOF” (XIAMEN UNIVERSITY, priority 2015, published 2018).
Marks after values point to notes of the source that are not given here.

Assays:
[1] = system: mice with APAP-induced liver injury; experiment: Acetaminophen (APAP)-induced liver injury in mouse; format: in vivo; details: for ALT (U/L) / Hepatic GSH (μM/g liver tissue): then APAP 500 mg/kg; for ALT (U/L): serum, vehicle 786 ± 111; for Liver morphology by H&E staining (FIG. 1): 10 mg/kg (Tschimganine 20 mg/kg) i.p. five days, then APAP, compared to severe liver injury in control group; for expression levels of GPX1 and UGT1α1 in liver: mRNA by RT-PCR; for expression levels of GPX1 and UGT1α1 in liver / activities of serum AST, ALT and LDH: vs vehicle control group, Table 5 (not given)
From the text: Methods: Acetaminophen (APAP)-induced liver injury in mouse is a commonly used model to study drugs protecting liver. Overdose of APAP causes liver injury by inducing the production of reactive oxygen species and reactive nitrogen species, and excessive consumption of reductive substances such as antioxidant glutathione (GSH), leading to the reduction of GSH in vivo, and the following upregulation of the activities of the aspartate aminotransferase (AST), the alanine aminotransferase (ALT) and the lactate dehydrogenase (LDH), which will result in liver inflammation and necrosis. In this example, the APAP-induced liver injury was used to detect the protection and repair functions of our compounds in liver injury.
One-year or 8-week age mice were maintained under environmentally controlled conditions with free access to standard chow diet and water. Animal experiments were conducted in the barrier facility of the Laboratory Animal Center, Xiamen University, approved by the Institutional Animal Use and Care Committee of Xiamen University, China.
Compounds were solved with DMSO and then prepared to work concentration with 40% HBC (2-hydroxypropyl-β-cyclodextrin) in which the final work concentrations of compounds are 5 mg/kg body weight, 10 mg/kg or 20 mg/kg in 100 μl injection volume and the concentration of DMSO is 10%. Compounds were intraperitoneal (i.p.) injected once daily for five days. For Feroline and Tschimganine, one-year age mice were used in the experiment. For other compounds, 8-week age mice were used. […] For Tschimganine, 20 mg/kg dose of compound was administered to mice. For other compounds, 5 mg/kg dose of compounds were administered to mice. Six hours after the fifth injection, 500 mg/kg body weight of APAP solved in PBS was i.p. injected to the mice. 24 hours later, mice were sacrificed. Part of each liver was fixed in 4% paraformaldehyde, and the liver histology characterization was analyzed by haematoxylin and eosin (H&E) staining with paraffin-embedded sections by standard procedures. Other liver tissues were collected for detecting the GSH levels, and the mRNA expression of genes involved in liver repairing, such as GPX1 and UGT1a1, by RT-PCR. The serums were collected to measure enzymes activities including AST, ALT and LDH. For the synthetic derivatives, ALT and GSH were selected as indicating markers for the function of these compounds.

db/db mice = experiment: Serum/blood metabolic parameters in high-fat diet fed db/db mice; format: in vivo, mouse; details: 10 mg/kg, treat for 10 days, vehicle 527 ± 63
From the text: KK-Ay mice (KK/Upj-Ay/J) are animal models with moderate obese and diabetes with insulin resistance. KK-Ay mice develop hyperglycemia, hyperinsulinemia, glucose intolerance and obesity as well as fat accumulation in liver by eight weeks of age. Pancreatic islets are hypertrophied and the β-cells are degranulated. db/db mice (BKS.Cg-Dockr+/+ Lepr^db/Jnju) are animal models of type II diabetes. They have the phenotype of insulin resistance. These model mice were used to detect the functions of our compounds on metabolic diseases.
8-10 weeks age mice were maintained as example 4, and fed with high-fat diet (Research Diets, D12492). Mice were i.p. injected with compounds once daily for 7, 10, 11 or 14 days as indicated in each table. After the last compounds injection, mice were fasted for 6 hours with free access to water, and then sacrificed. Part of each liver was fixed in 4% paraformaldehyde for H&E staining, and other liver tissues were stored in liquid nitrogen for enzyme activity measurement and gene expression analysis by RT-PCR. The serums were collected to measure metabolic parameters, including serum glucose, insulin, cholesterol, free fatty acid (FFA) and triglyceride levels. Serum glucose was analyzed using glucose oxidase method (Applygen, Beijing, China). The blood glucose in Table 11 was measured with Berenger blood glucose test strips (B/BRAUN, German) from blood by cutting mice tail after the 6th injection and following fast for 16 hours. Serum cholesterol and FFA were analyzed using Cholesterol Assay Kit and FFA Assay Kit (Bioassay Systems, USA; Nanjing Jiancheng Bioengineering Institute, China; FFA ELISA, R&D, USA), respectively. Serum triglyceride was analyzed using Triglyceride Assay Kit (Bioassay Systems, USA; WAKO Chemicals Inc., Japan; Applygen, Beijing, China). Liver triglyceride was analyzed using Tissue triglyceride assay kit (Applygen, Beijing, China). Serum insulin levels were measured by the Ultra Sensitive Mouse Insulin ELISA Kit (Crystal Chem. Inc., USA). RNA was isolated using Tissue RNA kit (Omega Bio-Tek, GA). The first strand cDNA were obtained by TAKARA reverse transcription kit. Real-time quantitative PCR were performed on a CFX96™ Real-Time PCR Detection System (Bio-Rad) using SYBR Premix Ex Taq™ (TAKARA). Relative mRNA expression levels were normalized to actin levels. […]

[2] = system: inflammatory cytokines in tissues of db/db mice; experiment: Inflammatory cytokine mRNA levels in tissues of high-fat diet fed db/db mice (RT-PCR); format: in vivo, mouse; details: 5 mg/kg; for mRNA level of iNOS (fold), Liver tissue: vehicle 1.06 ± 0.14; for mRNA level of iNOS (fold), Colon tissue: vehicle 1.12 ± 0.23; for WAT, mRNA level (fold), IL-1β / WAT, mRNA level (fold), TNFα: white adipose tissue; for WAT, mRNA level (fold), IL-1β: vehicle 1.06 ± 0.2; for WAT, mRNA level (fold), TNFα: vehicle 1.15 ± 0.13
From the text: In this example, we detected the levels of various inflammatory cytokines including iNOS, IFNγ, TGFβ, TNFα, COX2, IL-1β, IL-6, SAA1, MIP-1α and CD36 in liver, kidney, white adipose tissue (WAT) in various mice models, including wild type mice treated with APAP in example 4, high-fat diet fed diabetic and obesity db/db and KK-Ay mice in example 5, high-fat diet fed wild-type mice in Example 5, as well as in primary hepatocytes with LPS induced inflammation, using RT-PCR.

[3] = system: collagen related genes in mice livers; experiment: Liver mRNA levels of collagen related genes in mice of Example 5 (RT-PCR); format: in vivo, mouse; details: 10 mg/kg
From the text: NAFLD with excessive fat accumulation in liver will affect the blood and oxygen supplies to liver and the metabolism of liver organ, resulting in amounts of cell swelling, inflammatory infiltration and necrosis in liver. […] The levels of various collagen contents are higher in patients with liver cirrhosis. Masson's staining is a three-color staining protocol used in histology. It is widely used to study hepatic pathologies (cirrhosis). It's an authoritative and classic method to detect the existence and extend of accumulation of the collagen fiber. Sirius Red staining is also presented as a method for collagen determination. In this example, the Masson's staining and […] were performed to detect the collagen deposit in high fat diet fed db/db mice in Example 5. The Masson's staining kit (Nanjing Jiancheng Engineering Institute, China) was used for the staining of liver sections in Example 5. The Sirius red staining is performed as standard procedure. RT-PCR was used detect the expression of collagen and related genes such as α1(I) collagen, α2(I)collagen, α-SMA and MCP-1 in mice livers.

[4] = 5 mg/kg i.p. once daily for five days, 8-week age mice
[5] = 5 mg/kg i.p. once daily for five days, 8-week age mice, vehicle 9.1 ± 0.5

SMILES	ALT (U/L) [1, 4]	Hepatic GSH (μM/g liver tissue) [1, 5]	Serum Glucose (mg/dl) (db/db mice)	further results
CC1(C)C2CCC1(C)C(OC(=O)c1ccncc1)C2 (stereo not drawn) [XD-6, 1,7,7-trimethyl-bicyclo[2.2.1]-heptan-2-yl isonicotinate]	109 ± 26 ^c U/L	–	–	–
O=C(OC1CCC2CCCCC2C1)c1ccc(O)cc1 (stereo not drawn) [XD-28, decahydro-naphthalen-2-yl 4-hydroxy-benzoate]	114 ± 25 ^c U/L	–	–	–
COc1cc(C(=O)OC2CCCCCCC2)ccc1O [XD-18, cyclooctyl 4-hydroxy-3-methoxybenzoate]	135 ± 48 ^a U/L	–	–	–
Cc1cc(C(=O)OC2CCC3CCCCC3C2)ccc1[N+](=O)[O-] (stereo not drawn) [XD-35, decahydro-naphthalen-2-yl 3-methyl-4-nitro-benzoate]	–	12.6 ± 1.6 ^a μM/g liver tissue	337 ± 67^a mg/dl	–
Nc1ccc(C(=O)OC2CCC3CCCCC3C2)cc1 (stereo not drawn) [XD-23, decahydro-naphthalen-2-yl 4-aminobenzoate]	130 ± 62 ^a U/L	–	–	mRNA level of iNOS (fold), Liver tissue [2]: 0.2 ± 0.1^a fold; mRNA level of iNOS (fold), Colon tissue [2]: 0.55 ± 0.29^a fold; WAT, mRNA level (fold), IL-1β [2]: 0.64 ± 0.13^a fold; WAT, mRNA level (fold), TNFα [2]: 0.6 ± 0.21^a fold
O=C(OC1CCCCCCCCCCC1)c1ccc(O)cc1 [XD-11, cyclododecyl 4-hydroxybenzoate]	–	12.6 ± 0.4 ^b μM/g liver tissue	–	–
C/C1=C\CCC(C)(O)/C=C/C(C(C)C)C(OC(=O)c2ccc(O)cc2)C1 (stereo not drawn) [Feroline]	–	–	–	Liver morphology by H&E staining (FIG. 1) [1]: almost normal liver morphology; Hepatic GSH (μM/g liver tissue) ([1]; 10 mg/kg i.p. once daily for five days, one-year age mice, vehicle 8.0 ± 2.8): 14.2 ± 1.6^b μM/g liver tissue; expression levels of GPX1 and UGT1α1 in liver [1]: significantly upregulated; activities of serum AST, ALT and LDH [1]: dramatically lower; Relative mRNA level of α-SMA ([3]; vehicle 1 ± 0.1): 0.73 ± 0.06^a; Relative mRNA level of α2(I) collagen ([3]; vehicle 1.1 ± 0.1): 0.6 ± 0.06^a; Relative mRNA level of α1(I) collagen ([3]; vehicle 1.1 ± 0.2): 0.37 ± 0.1^a
Cc1cc(C(=O)OC2CCC3CCCCC3C2)ccc1O (stereo not drawn) [XD-29, decahydro-naphthalen-2-yl 4-hydroxy-3-methylbenzoate]	118 ± 31 ^c U/L	–	–	–
Nc1ccc(C(=O)OC2CCCCCC2)cc1 [XD-12, cycloheptyl 4-aminobenzoate]	–	12.5 ± 0.7 ^a μM/g liver tissue	–	–
O=C(OC1CCCCCCC1)c1ccc(O)cc1 [XD-10, cyclooctyl 4-hydroxybenzoate]	114 ± 31 ^c U/L	–	–	mRNA level of iNOS (fold), Liver tissue [2]: 0.52 ± 0.3^a fold; mRNA level of iNOS (fold), Colon tissue [2]: 0.49 ± 0.21^a fold
CC1(C)C2CCC1(C)C(OC(=O)c1ccc(F)cc1)C2 (stereo not drawn) [XD-0, 1,7,7-trimethyl-bicyclo[2.2.1]-heptan-2-yl 4-fluorobenzoate]	–	15.0 ± 0.5 ^b μM/g liver tissue	223 ± 33^b mg/dl	–
COc1cc(C(=O)OC2CCC3CCCCC3C2)ccc1O (stereo not drawn) [XD-30, decahydro-naphthalen-2-yl 4-hydroxy-3-methoxybenzoate]	107 ± 41 ^b U/L	–	400 ± 51^a mg/dl	–
CC1(C)C2CCC1(C)C(OC(=O)C1CCC(O)CC1)C2 (stereo not drawn) [XD-20, 1,7,7-trimethyl-bicyclo[2.2.1]-heptan-2-yl 4-hydroxy-cyclohexane-carboxylate]	–	–	396 ± 55^a mg/dl	mRNA level of iNOS (fold), Liver tissue [2]: 0.51 ± 0.2^a fold; mRNA level of iNOS (fold), Colon tissue [2]: 0.5 ± 0.18^a fold
CC1(C)C2CCC1(C)C(OC(=O)c1ccc(N)cc1)C2 (stereo not drawn) [XD-5, 1,7,7-trimethyl-bicyclo[2.2.1]-heptan-2-yl 4-aminobenzoate]	197 ± 57 ^b U/L	12.8 ± 0.3 ^b μM/g liver tissue	–	WAT, mRNA level (fold), IL-1β [2]: 0.33 ± 0.2^a fold; WAT, mRNA level (fold), TNFα [2]: 0.56 ± 0.17^a fold
CC1(C)C2CCC1(C)C(OC(=O)c1ccc(=O)oc1)C2 (stereo not drawn) [XD-9, 1,7,7-trimethyl-bicyclo[2.2.1]-heptan-2-yl 6-oxo-6H-pyran-3-carboxylate]	–	–	399 ± 41^a mg/dl	–
COc1cc(C(=O)OC2C/C(C)=C/CC/C(C)=C/[C@@H](O)[C@H]2C(C)C)ccc1O (stereo partly drawn) [Tschimganidine]	–	–	–	Liver morphology by H&E staining (FIG. 1) [1]: almost normal liver morphology; expression levels of GPX1 and UGT1α1 in liver [1]: significantly upregulated; activities of serum AST, ALT and LDH [1]: dramatically lower
COc1cc(C(=O)OC2CCC3CCCCC3C2)ccc1[N+](=O)[O-] (stereo not drawn) [XD-36, decahydro-naphthalen-2-yl 3-methoxy-4-nitrobenzoate]	–	14.8 ± 0.3 ^b μM/g liver tissue	366 ± 65^a mg/dl	–
CC1(C)C2CCC1(C)C(OC(=O)c1ccc(=O)[nH]c1)C2 (stereo not drawn) [XD-8, 1,7,7-trimethyl-bicyclo[2.2.1]-heptan-2-yl 6-oxo-1,6-dihydropyridine-3-carboxylate]	115 ± 38 ^c U/L	–	–	–
CC1(C)C2CCC1(C)C(OC(=O)c1ccc(F)c(Br)c1)C2 (stereo not drawn) [XD-13, 1,7,7-trimethyl-bicyclo[2.2.1]-heptan-2-yl 3-bromo-4-fluoro-benzoate]	–	13.7 ± 0.9 ^a μM/g liver tissue	–	–
